Each structure is given as a SMILES string. Calls of active or inactive are those of the source. Rule as the data show it, for most assays here: actives have a measured EC50 and inactives only a lower limit.

The target of experiment [1] is T1, Heat shock factor protein 1 (Mus musculus, UniProt P38532).
T1 sequence (P38532 whole entry): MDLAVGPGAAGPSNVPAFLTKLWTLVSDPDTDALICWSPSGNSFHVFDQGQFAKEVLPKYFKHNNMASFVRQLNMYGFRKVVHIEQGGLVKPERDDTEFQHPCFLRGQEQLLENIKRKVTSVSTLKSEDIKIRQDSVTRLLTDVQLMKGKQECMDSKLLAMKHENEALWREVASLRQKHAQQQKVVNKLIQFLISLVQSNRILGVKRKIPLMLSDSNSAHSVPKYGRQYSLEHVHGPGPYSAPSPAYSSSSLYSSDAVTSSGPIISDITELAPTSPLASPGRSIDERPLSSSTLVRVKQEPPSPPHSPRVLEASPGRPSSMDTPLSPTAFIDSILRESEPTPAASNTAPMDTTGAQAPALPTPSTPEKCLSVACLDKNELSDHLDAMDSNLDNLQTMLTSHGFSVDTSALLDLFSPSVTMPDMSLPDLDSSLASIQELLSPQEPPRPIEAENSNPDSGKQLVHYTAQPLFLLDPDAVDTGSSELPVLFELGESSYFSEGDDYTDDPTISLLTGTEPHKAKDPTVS
Put plainly: decrease of HSF1-responsive luciferase luminescence – cell-based, NIH3T3, dose retest, confirmation (AID 2382).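 Also: NIH3T3 fibroblasts with HSF1-driven luciferase reporter stressed by proteasome inhibitor MG132; luminescence from HSF1-driven luciferase expression after 8 hours of MG132 stress.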 Format: functional.

Experiment [2] concerns the target T2, Replicative DNA helicase DnaB (Mycobacterium tuberculosis, UniProt P9WMR3).
T2 sequence (P9WMR3 whole entry): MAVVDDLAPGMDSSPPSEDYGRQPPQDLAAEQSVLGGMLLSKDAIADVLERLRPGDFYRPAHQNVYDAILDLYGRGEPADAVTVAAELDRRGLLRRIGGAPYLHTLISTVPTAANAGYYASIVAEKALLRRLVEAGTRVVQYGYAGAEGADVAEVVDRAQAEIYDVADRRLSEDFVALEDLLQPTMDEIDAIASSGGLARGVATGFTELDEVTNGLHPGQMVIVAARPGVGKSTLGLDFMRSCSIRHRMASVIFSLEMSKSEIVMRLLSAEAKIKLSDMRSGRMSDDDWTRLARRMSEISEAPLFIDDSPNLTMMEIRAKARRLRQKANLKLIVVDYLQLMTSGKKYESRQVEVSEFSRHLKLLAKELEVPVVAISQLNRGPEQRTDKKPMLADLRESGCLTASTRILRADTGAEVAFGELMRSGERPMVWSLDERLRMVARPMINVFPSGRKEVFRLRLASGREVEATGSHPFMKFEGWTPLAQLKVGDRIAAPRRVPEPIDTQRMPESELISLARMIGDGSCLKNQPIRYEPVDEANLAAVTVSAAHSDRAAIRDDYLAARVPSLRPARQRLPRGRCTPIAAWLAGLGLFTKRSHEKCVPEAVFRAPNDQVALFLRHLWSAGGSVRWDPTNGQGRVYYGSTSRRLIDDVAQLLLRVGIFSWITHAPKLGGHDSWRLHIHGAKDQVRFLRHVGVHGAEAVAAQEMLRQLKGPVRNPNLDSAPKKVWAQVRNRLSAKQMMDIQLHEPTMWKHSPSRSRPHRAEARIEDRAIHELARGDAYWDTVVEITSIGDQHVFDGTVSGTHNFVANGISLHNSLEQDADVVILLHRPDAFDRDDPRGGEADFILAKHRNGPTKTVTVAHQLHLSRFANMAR
Put plainly: DnaB intein splicing inhibitors, dose response, biochemical, cell-free fluorescence (AID 449749). Format: functional.

In the next experiment the target is T3, Protein RecA (Mycobacterium tuberculosis, UniProt P9WHJ3).
T3 sequence (P9WHJ3 whole entry): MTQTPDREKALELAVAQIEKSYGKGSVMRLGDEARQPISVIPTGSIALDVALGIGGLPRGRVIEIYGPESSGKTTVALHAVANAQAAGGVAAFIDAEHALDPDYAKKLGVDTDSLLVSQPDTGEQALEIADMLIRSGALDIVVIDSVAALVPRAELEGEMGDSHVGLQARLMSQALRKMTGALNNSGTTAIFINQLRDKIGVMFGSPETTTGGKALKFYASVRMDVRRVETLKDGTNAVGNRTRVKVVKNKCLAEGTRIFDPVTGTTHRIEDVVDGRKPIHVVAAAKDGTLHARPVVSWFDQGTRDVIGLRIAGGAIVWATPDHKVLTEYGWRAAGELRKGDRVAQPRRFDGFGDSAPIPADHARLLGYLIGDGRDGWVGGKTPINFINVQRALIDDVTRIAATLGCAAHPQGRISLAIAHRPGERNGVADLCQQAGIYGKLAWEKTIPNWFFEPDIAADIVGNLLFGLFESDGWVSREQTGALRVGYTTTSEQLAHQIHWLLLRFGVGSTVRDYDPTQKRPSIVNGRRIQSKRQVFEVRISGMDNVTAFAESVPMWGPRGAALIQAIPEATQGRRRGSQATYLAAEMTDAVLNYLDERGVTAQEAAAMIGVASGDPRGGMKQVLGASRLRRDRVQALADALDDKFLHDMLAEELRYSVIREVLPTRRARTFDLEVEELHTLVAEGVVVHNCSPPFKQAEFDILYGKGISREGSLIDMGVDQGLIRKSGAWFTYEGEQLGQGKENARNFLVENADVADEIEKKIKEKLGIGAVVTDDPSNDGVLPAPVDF
Put plainly: Fluorescence Cell-Free Homogeneous Dose Retest to Identify Inhibitors of RecA-Intein Splicing Activity. [Related pubchem assays (depositor defined):AID2097, AID2223, AID489010, AID492950]. Format: functional.

A further experiment deals with Genome polyprotein (dengue virus type 2, UniProt P29990). Kind of experiment: flavivirus cap methylation enzyme inhibition – biochemical, confirmation dose response, primary screen (AID 588689). It is filed as functional.
Chain of Genome polyprotein (P29990 2492-3391 limits assumed): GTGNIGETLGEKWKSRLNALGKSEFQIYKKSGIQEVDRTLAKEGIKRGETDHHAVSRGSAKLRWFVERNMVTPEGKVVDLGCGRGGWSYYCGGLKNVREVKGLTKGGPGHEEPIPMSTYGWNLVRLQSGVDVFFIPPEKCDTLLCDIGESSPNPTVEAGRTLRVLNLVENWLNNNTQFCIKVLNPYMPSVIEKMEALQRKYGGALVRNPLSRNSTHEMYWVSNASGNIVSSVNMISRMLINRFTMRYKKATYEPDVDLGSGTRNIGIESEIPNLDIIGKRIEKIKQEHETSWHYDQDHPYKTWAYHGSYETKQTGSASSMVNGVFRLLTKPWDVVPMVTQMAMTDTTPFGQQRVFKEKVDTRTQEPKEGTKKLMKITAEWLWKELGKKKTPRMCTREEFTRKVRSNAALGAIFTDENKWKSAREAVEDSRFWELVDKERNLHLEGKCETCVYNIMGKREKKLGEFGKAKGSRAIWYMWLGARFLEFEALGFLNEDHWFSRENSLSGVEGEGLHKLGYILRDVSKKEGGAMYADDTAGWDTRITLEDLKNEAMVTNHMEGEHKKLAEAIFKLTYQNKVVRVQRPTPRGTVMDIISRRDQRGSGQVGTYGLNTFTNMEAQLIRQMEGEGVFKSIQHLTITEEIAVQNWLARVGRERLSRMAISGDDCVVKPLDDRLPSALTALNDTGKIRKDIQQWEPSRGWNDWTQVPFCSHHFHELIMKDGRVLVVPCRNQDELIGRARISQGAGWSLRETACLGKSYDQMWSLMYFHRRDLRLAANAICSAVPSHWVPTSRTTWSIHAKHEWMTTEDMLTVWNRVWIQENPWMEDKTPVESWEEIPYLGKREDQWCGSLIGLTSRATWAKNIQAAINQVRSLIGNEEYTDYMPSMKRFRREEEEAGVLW
For experiment [3], the target named is T4, Calpain-2 catalytic subunit (Sus scrofa, UniProt P43367).
T4 sequence (P43367 whole entry): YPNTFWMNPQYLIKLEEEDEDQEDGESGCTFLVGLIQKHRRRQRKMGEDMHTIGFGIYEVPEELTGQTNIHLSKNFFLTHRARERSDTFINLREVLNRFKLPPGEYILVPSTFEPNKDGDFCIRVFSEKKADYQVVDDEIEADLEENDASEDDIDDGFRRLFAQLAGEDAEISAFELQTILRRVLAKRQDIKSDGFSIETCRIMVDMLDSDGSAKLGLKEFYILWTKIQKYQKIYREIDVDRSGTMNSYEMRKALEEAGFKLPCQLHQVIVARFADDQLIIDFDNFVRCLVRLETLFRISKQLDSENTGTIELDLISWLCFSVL
Put plainly: m-calpain protease blockers, concentration series – biochemical, fluorogenic peptide substrate, dose response (AID 1420). It is filed as functional.

Experiment [4] deals with T5, Voltage-gated N-type calcium channel alpha-1B subunit/Amyloid beta A4 precursor protein-binding family A member 1 (Homo sapiens, UniProt Q00975+Q02410). Format: protein assay.
T5 sequence (Q00975 whole entry): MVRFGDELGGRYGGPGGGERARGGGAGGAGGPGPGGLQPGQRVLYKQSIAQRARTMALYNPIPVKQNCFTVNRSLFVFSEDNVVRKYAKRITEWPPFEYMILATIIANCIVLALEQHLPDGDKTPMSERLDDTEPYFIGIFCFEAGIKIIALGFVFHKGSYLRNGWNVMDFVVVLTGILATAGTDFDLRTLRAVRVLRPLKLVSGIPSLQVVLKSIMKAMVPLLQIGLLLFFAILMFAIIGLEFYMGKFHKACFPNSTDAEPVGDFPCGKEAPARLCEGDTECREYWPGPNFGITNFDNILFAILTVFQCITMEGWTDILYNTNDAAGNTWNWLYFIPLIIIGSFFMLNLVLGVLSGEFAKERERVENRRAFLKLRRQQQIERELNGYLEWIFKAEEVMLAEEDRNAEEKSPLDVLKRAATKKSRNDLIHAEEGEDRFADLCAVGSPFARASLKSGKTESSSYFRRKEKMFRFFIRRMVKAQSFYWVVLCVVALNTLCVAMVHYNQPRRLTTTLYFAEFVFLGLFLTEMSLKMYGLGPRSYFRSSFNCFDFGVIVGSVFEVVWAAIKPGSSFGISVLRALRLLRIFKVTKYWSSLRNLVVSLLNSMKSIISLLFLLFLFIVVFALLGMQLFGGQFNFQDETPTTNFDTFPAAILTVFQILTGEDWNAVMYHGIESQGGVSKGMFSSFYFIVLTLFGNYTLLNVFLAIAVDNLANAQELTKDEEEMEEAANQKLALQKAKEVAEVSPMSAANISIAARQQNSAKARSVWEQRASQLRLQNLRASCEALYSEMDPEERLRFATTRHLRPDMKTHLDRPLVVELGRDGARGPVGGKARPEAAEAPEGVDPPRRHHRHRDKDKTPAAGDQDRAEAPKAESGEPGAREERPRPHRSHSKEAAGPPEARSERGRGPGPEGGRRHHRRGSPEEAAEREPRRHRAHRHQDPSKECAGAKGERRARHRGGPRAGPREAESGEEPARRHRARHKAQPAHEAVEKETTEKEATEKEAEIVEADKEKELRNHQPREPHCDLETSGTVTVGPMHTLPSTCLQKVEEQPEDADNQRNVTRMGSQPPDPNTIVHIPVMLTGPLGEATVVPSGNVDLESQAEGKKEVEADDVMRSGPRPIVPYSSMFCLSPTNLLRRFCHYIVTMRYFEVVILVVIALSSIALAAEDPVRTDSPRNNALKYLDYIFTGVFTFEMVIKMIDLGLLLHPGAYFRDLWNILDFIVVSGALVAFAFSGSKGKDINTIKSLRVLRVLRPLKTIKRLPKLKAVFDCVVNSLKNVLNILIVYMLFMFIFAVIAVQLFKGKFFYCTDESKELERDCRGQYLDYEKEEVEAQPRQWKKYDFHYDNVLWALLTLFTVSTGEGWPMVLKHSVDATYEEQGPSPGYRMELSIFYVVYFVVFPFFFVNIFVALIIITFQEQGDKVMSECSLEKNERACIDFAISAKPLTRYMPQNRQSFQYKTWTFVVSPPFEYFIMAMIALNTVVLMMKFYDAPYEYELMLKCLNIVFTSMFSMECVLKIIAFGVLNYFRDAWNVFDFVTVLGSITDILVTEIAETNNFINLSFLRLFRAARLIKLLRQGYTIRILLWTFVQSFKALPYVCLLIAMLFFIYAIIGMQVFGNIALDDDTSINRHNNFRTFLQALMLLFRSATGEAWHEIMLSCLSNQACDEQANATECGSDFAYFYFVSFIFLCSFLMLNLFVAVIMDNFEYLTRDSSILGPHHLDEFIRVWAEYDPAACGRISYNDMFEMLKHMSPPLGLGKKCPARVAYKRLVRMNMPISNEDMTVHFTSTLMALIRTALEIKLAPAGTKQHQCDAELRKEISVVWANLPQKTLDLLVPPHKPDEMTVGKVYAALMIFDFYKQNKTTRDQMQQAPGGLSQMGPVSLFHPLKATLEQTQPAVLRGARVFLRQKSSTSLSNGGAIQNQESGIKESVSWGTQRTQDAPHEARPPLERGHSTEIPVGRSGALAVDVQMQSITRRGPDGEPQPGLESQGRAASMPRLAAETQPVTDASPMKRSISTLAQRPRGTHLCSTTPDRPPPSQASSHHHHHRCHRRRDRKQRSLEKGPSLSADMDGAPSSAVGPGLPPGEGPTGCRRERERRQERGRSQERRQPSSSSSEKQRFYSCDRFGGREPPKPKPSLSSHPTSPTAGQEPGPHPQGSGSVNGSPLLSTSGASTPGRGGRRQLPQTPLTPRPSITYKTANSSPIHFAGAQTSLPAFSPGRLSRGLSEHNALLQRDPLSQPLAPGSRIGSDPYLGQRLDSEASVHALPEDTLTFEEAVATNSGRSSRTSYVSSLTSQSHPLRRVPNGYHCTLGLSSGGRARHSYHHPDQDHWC
T5 sequence (Q02410 whole entry): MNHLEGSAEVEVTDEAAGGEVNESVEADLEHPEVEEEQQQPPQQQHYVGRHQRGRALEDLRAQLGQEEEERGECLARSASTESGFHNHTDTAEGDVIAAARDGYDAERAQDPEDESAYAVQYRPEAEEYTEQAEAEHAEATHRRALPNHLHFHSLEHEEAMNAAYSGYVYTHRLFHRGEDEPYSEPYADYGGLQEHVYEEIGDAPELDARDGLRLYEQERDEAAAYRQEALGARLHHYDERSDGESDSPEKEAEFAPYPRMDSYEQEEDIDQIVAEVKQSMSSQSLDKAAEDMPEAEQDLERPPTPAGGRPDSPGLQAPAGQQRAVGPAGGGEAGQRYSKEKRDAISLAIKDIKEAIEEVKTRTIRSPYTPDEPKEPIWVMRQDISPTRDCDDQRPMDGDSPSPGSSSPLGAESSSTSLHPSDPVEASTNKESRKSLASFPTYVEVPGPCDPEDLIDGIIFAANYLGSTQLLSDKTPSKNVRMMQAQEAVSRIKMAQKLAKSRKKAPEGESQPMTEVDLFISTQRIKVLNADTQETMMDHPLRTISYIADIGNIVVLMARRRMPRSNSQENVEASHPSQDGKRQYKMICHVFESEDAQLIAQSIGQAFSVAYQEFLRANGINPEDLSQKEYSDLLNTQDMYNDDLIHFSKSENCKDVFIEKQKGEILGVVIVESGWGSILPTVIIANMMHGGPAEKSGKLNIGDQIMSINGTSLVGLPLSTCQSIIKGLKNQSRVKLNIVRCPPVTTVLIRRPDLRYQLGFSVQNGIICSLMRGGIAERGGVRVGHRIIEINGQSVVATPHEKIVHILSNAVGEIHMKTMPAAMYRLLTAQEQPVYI
Experiment [5] has as its target T5, Voltage-gated N-type calcium channel alpha-1B subunit/Amyloid beta A4 precursor protein-binding family A member 1. It is filed as protein assay. This is another data set of the same source.
A short description of experiment [6]: luciferase reporter signal suppression in cells – H4 neuroglioma cells, luminescence, dose response (AID 1990). It is filed as functional, cell-based.
The subject of experiment [7] is BJ. Kind of experiment: BJ-TERT fibroblast viability loss – cell-based, RAS-independent, luminescence, dose response (AID 1933). Format: functional. The following applies: Homo sapiens.
Experiment [8] is described as follows: Luminescence Cell-Based Dose Response HTS to Identify Inhibitors of 5'UTR Stem-Loop Driven Prion Protein mRNA Translation in H4 Neuroglioblastoma Cells. [Related pubchem assays: 1827 (Project Summary), 1813 (Primary HTS)]. Format: functional.
A short description of experiment [9]: alpha-synuclein stem-loop luciferase translation blockers – H4 neuroglioma cells, luminescence, confirmation (AID 1988). Format: functional, cell-based.
For experiment [10], the system named is BJ. Put plainly: cells. Format: functional, cell-based. The following applies: Homo sapiens.
Experiment [11] relates to BJ. Kind of experiment: BJ-TERT-LT-ST fibroblast viability loss – cell-based, RAS-independent, luminescence, dose response (AID 1935).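 Also: BJ fibroblasts immortalized with TERT plus LT and ST oncogenes.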 Format: functional. The following applies: Homo sapiens.
The nature of experiment [12]: DRD fibroblast viability loss – cell-based, non-viral oncogenic, luminescence, dose response (AID 1934). It is filed as functional. The following applies: Homo sapiens.
The next experiment has as its target T6, Coagulation factor XII (Homo sapiens, UniProt P00748).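 Also: activated factor XIIa alpha cleaving a fluorogenic AMC peptide substrate; inhibitor potency from loss of enzyme activity.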
T6 sequence (P00748 whole entry): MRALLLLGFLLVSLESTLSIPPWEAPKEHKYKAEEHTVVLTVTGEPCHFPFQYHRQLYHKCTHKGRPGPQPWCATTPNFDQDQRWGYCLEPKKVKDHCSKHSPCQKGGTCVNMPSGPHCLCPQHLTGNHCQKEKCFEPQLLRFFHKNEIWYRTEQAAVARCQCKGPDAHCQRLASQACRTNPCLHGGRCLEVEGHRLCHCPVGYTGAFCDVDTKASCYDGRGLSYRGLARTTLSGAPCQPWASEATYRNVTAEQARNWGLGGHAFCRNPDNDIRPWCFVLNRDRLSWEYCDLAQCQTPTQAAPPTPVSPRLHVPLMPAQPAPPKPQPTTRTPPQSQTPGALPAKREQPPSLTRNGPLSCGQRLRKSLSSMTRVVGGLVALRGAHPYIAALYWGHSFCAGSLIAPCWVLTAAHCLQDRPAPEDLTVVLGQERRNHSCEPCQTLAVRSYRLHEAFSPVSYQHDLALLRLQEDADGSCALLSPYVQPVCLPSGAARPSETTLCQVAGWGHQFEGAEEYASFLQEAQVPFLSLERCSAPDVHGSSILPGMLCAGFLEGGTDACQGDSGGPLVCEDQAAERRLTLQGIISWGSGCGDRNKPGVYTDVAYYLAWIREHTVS
It is filed as functional.

Experiment [13] is described as follows: NIH-3T3 fibroblast cytotoxicity, dose response, cytotoxicity control, cell-based, fluorescence, Alamar Blue, secondary assay (AID 2327).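 Also: NIH-3T3 mouse fibroblasts cultured with fluconazole at 8 µg/mL.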 Format: functional. Background: Resazurin is reduced to fluorescent resorufin, in cell work by metabolically active cells.
The nature of experiment [14]: fluconazole-exposed Candida albicans growth modulators – fluorescence, retest, confirmation (AID 2467). Format: functional, cell-based.
Experiment [15] has as its target FAD-linked sulfhydryl oxidase ALR (Homo sapiens, UniProt P55789). Kind of experiment: ALR-catalysed DTT oxidation blockers – biochemical, H2O2 detection, luminescence, cherry-pick, dose response (AID 493248).

Chain of FAD-linked sulfhydryl oxidase ALR (P55789 whole entry): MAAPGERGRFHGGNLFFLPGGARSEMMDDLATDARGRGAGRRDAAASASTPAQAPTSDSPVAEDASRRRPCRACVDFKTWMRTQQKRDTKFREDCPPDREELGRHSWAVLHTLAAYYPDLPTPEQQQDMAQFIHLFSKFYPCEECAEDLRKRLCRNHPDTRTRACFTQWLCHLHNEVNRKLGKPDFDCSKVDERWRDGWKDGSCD

As to `Cc1ccc(SCc2n[nH]c3c2C(c2ccc(C)o2)C(C#N)=C(N)O3)cc1` (stereo not drawn), the concentration giving a half-maximal response (EC50) in experiment [1] is > 195 µM (not active); at Protein RecA, 7.85 µM (active). The AC50 in experiment [2] is 61.4 µM (active). At Genome polyprotein, the IC50 is > 100 µM (active).

Consider `COc1ccc(OC)c(C(c2nnnn2C2CCCC2)N2CCN(c3ccccc3F)CC2)c1` (stereo not drawn), for which the IC50 in experiment [3] is given as 1.31 µM (not active).

Take `CNC(=S)N=C(Nc1ccc(C)cc1)c1ccccc1`: the figures for the IC50 in experiment [4] and in [5] were 2.38 µM (active) and > 50 µM (inactive), respectively.

As for `COCCCNc1nnc(Cc2ccc(Cl)cc2)c(O)n1`, the EC50 was 9.25 µM (inconclusive) in [6]; 1.47 µM (active) in the experiment with BJ [7]; 9.52 µM (active) in experiment [8]; 6.13 µM (active) in experiment [9]; 24.2 µM (active) in the experiment on BJ [10]; 0.913 µM (active) in the experiment on BJ [11]. Moreover, in [12], the EC50 is 1.04 µM (active).

In the case of `N#CC1=C(N)Oc2cc(N)ccc2C1c1cc(Br)cs1` (stereo not drawn), the EC50 was 11.4 µM (active) in the experiment on BJ [7], 94.1 µM (inconclusive) in the experiment on BJ [10], 20.6 µM (inconclusive) with BJ [11] and 15.5 µM (inconclusive) in [12].

Turning to `Cc1nc(C)n(CC(O)COc2ccc(C(=O)c3ccccc3)cc2)n1` (stereo not drawn), the IC50 in [3] is on record as 13.4 µM (not active).

`O=C(CCN1C(=O)/C(=C/c2ccccc2F)SC1=S)NC1C=CS(=O)(=O)C1` (stereo not drawn): the IC50 is 2.87 µM (active) in experiment [4] and > 50 µM (inactive) in [5].

As to `COc1ccc(S(=O)(=O)N2CCCCC2)cc1NC(=O)CN(C)C1CCCCC1`, the IC50 is 10.8 µM (not active) in experiment [3] and > 50 µM (inactive) on Coagulation factor XII.

For the compound `CN(C)C(=O)c1cn(-c2ccccc2)nc1-c1cccs1`, the EC50 was 24 µM (inconclusive) in experiment [13] and 7.34 µM (active) in [14].

For `Cc1ccc(NC(=O)c2cccc(C(=O)Nc3ccc(C)cc3C(=O)O)c2)c(C(=O)O)c1`, the AC50 in [15] was 2.11 µM (active). Further, at Genome polyprotein, the IC50 was 22.3 µM (active).

`Cn1c(NCc2ccco2)nc2c1c(=O)n(Cc1ccc(Br)cc1)c(=O)n2C`: the IC50 in experiment [3] is reported as 2.84 µM (not active).

Take `NC(=O)c1ccc(-n2nnnc2SCC(=O)Nc2ccccc2-c2ccccc2)cc1`: the IC50 in [3] was 5.14 µM (not active).

In the case of `CCC(=O)c1ccc(Oc2ccc(C(=O)c3ccc(C)cc3)cc2[N+](=O)[O-])cc1`, the EC50 (with BJ [7]; in the experiment with BJ [10]; in the experiment on BJ [11]; in experiment [12]) was > 150 µM (not active) throughout.

As a reminder, the EC50 is the concentration that produces a half-maximal response. A word on the AC50: it is the concentration at which the activity in the assay is half-maximal. By IC50 is commonly meant the concentration at which inhibition is half-maximal.

(Values after ChEMBL document CHEMBL1201862, “PubChem BioAssay data set” (2004).)
